According to patent US20240190880A1 (THE REGENTS OF THE UNIVERSITY OF MICHIGAN, priority 2021, published 2024):

Each molecule was assayed against T1, ER (Homo sapiens, UniProt P03372) (assay: ER degradation activity, in-cell western blot analysis in T47D cells). Details: 16 hours, Table A does not say which cell line (T47D or MCF7), read-out: Potency (DC50).
T1 construct: host or cells: T47D and MCF7 human breast cancer cells
T1 sequence (P03372 1-595): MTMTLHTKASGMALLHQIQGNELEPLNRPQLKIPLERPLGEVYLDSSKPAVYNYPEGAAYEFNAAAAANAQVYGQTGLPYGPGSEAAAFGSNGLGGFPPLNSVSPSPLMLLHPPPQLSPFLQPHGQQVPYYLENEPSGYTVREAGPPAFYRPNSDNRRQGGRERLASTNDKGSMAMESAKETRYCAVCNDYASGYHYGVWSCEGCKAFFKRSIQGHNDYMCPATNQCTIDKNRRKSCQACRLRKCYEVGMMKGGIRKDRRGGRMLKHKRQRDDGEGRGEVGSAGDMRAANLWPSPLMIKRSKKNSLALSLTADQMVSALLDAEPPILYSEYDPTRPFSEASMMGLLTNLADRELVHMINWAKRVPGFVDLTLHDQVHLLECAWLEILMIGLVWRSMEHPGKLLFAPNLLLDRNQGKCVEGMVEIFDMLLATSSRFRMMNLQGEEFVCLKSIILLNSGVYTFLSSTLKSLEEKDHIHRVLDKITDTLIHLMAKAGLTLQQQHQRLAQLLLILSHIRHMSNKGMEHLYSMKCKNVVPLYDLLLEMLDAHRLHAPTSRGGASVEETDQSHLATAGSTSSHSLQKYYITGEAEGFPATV
Type: cell-based
Outline: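 In-cell western, T47D; compounds 16 h, 0.5% DMSO final; anti-rabbit-680/anti-mouse-800 secondaries, 1 h RT, dark; read on CLX imager. ER % vs untreated/DMSO wells (100%).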

Row | DC50 [nM] | Compound
1 | > 100 | O=C1CCC(N2C(=O)c3cc4c(cc3C2=O)CN(C(=O)CN2CCC3(CC2)CC(Oc2ccc([C@@H]5c6ccc(O)cc6CC[C@@H]5c5ccccc5)cc2)C3)C4)C(=O)N1 (stereo partly drawn) [E 222, 2-(2,6-dioxopiperidin-3-yl)-6-(2-(2-(4-((1R,2S)-6-hydroxy-2-phenyl-1,2,3,4-tetrahydronaphthalen-1-yl)phenoxy)-7-azaspiro[3.5]nonan-7-yl)acetyl)-6,7-dihydropyrrolo[3,4-f]isoindole-1,3(2H,5H)-dione]
2 | < 10 | C[C@@H]1Cc2c([nH]c3ccccc23)[C@@H](c2c(F)cc(C3CCN(C(=O)[C@H]4CC[C@H](N5Cc6cc7c(cc6C5)C(=O)N(C5CCC(=O)NC5=O)C7=O)CC4)CC3)cc2F)N1CC(F)F (stereo partly drawn) [E 393, 6-((1R,4r)-4-(4-(4-((1R,3R)-2-(2,2-difluoroethyl)-3-methyl-2,3,4,9-tetrahydro-1H-pyrido[3,4-b]indol-1-yl)-3,5-difluorophenyl)piperidine-1-carbonyl)cyclohexyl)-2-(2,6-dioxopiperidin-3-yl)-6,7-dihydropyrrolo[3,4-f]isoindole-1,3(2H,5H)-dione]
3 | > 100 | O=C1CCC(N2C(=O)c3cc4c(cc3C2=O)CN(CC2CN(CC3CCN(c5ccc([C@@H]6c7ccc(O)cc7CC[C@@H]6c6ccccc6)cc5)CC3)C2)C4)C(=O)N1 (stereo partly drawn) [E 218, 2-(2,6-dioxopiperidin-3-yl)-6-((1-((1-(4-((1R,2S)-6-hydroxy-2-phenyl-1,2,3,4-tetrahydronaphthalen-1-yl)phenyl)piperidin-4-yl)methyl)azetidin-3-yl)methyl)-6,7-dihydropyrrolo[3,4-f]isoindole-1,3(2H,5H)-dione]
4 | > 100 | C[C@@H]1Cc2cc(O)ccc2[C@@H](c2c(F)cc(N3CCC4(CCN(C(=O)CN5Cc6cc7c(cc6C5)C(=O)N(C5CCC(=O)NC5=O)C7)C4)C3)cc2F)N1CC(C)(F)F (stereo partly drawn) [E 28, 3-(6-(2-(7-(4-((1S,3R)-2-(2,2-difluoropropyl)-6-hydroxy-3-methyl-1,2,3,4-tetrahydroisoquinolin-1-yl)-3,5-difluorophenyl)-2,7-diazaspiro[4.4]nonan-2-yl)-2-oxoethyl)-1-oxo-3,5,6,7-tetrahydropyrrolo[3,4-f]isoindol-2(1H)-yl)piperidine-2,6-dione]
5 | 10 to 100 | C[C@@H]1Cc2c([nH]c3ccccc23)[C@@H](c2c(F)cc(C3CCC(CN4CCC(N5Cc6cc7c(cc6C5)C(=O)N(C5CCC(=O)NC5=O)C7)CC4)CC3)cc2F)N1CC(F)F (stereo partly drawn) [E 308, 3-(6-(1-((4-(4-((1R,3R)-2-(2,2-difluoroethyl)-3-methyl-2,3,4,9-tetrahydro-1H-pyrido[3,4-b]indol-1-yl)-3,5-difluorophenyl)cyclohexyl)methyl)piperidin-4-yl)-1-oxo-3,5,6,7-tetrahydropyrrolo[3,4-f]isoindol-2(1H)-yl)piperidine-2,6-dione]
6 | < 10 | O=C1CCC(N2C(=O)c3cc4c(cc3C2=O)CN(C2CCN(CC3CCN(c5ccc([C@@H]6c7ccc(O)cc7CC[C@@H]6c6ccccc6)cc5)CC3)CC2)C4)C(=O)N1 (stereo partly drawn) [E 271, 2-(2,6-dioxopiperidin-3-yl)-6-(1-((1-(4-((1R,2S)-6-hydroxy-2-phenyl-1,2,3,4-tetrahydronaphthalen-1-yl)phenyl)piperidin-4-yl)methyl)piperidin-4-yl)-6,7-dihydropyrrolo[3,4-f]isoindole-1,3(2H,5H)-dione]
7 | > 100 | C[C@@H]1Cc2cc(O)ccc2[C@@H](c2c(F)cc(N3CCC(N4CC(CN5Cc6cc7c(cc6C5)C(=O)N(C5CCC(=O)NC5=O)C7=O)C4)CC3)cc2F)N1CC(F)F (stereo partly drawn) [E 46, 6-((1-(1-(4-((1S,3R)-2-(2,2-difluoroethyl)-6-hydroxy-3-methyl-1,2,3,4-tetrahydroisoquinolin-1-yl)-3,5-difluorophenyl)piperidin-4-yl)azetidin-3-yl)methyl)-2-(2,6-dioxopiperidin-3-yl)-6,7-dihydropyrrolo[3,4-f]isoindole-1,3(2H,5H)-dione]
8 | 10 to 100 | C[C@@H]1Cc2c([nH]c3ccccc23)[C@@H](c2ccc(N3CCC4(CCN(C(=O)CN5Cc6cc7c(cc6C5)C(=O)N(C5CCC(=O)NC5=O)C7=O)CC4)CC3)nc2)N1CC(F)F (stereo partly drawn) [E 281, 6-(2-(9-(5-((1R,3R)-2-(2,2-difluoroethyl)-3-methyl-2,3,4,9-tetrahydro-1H-pyrido[3,4-b]indol-1-yl)pyridin-2-yl)-3,9-diazaspiro[5.5]undecan-3-yl)-2-oxoethyl)-2-(2,6-dioxopiperidin-3-yl)-6,7-dihydropyrrolo[3,4-f]isoindole-1,3(2H,5H)-dione]
9 | < 10 | C[C@@H]1Cc2c([nH]c3ccccc23)[C@@H](c2c(F)cc(-c3ccc(C(=O)N4CCC(N5Cc6cc7c(cc6C5)C(=O)N(C5CCC(=O)NC5=O)C7=O)CC4)cn3)cc2F)N1CC(F)F (stereo partly drawn) [E 343, 6-(1-(6-(4-((1R,3R)-2-(2,2-difluoroethyl)-3-methyl-2,3,4,9-tetrahydro-1H-pyrido[3,4-b]indol-1-yl)-3,5-difluorophenyl)nicotinoyl)piperidin-4-yl)-2-(2,6-dioxopiperidin-3-yl)-6,7-dihydropyrrolo[3,4-f]isoindole-1,3(2H,5H)-dione]
10 | 10 to 100 | C[C@@H]1Cc2c([nH]c3ccccc23)[C@@H](c2c(F)cc(N3CCC(CN4CC(N5Cc6cc7c(cc6C5)C(=O)N(C5CCC(=O)NC5=O)C7=O)C4)CC3)cc2F)N1CC(F)F (stereo partly drawn) [E 123, 6-(1-((1-(4-((1R,3R)-2-(2,2-difluoroethyl)-3-methyl-2,3,4,9-tetrahydro-1H-pyrido[3,4-b]indol-1-yl)-3,5-difluorophenyl)piperidin-4-yl)methyl)azetidin-3-yl)-2-(2,6-dioxopiperidin-3-yl)-6,7-dihydropyrrolo[3,4-f]isoindole-1,3(2H,5H)-dione]
11 | 10 to 100 | O=C1CCC(N2C(=O)c3cc4c(cc3C2=O)CN(C2CCN(CC3CCN(c5ccc([C@@H]6c7ccc(O)cc7CC[C@@H]6c6ccc(F)cc6)cc5)CC3)CC2)C4)C(=O)N1 (stereo partly drawn) [E 273, 2-(2,6-dioxopiperidin-3-yl)-6-(1-((1-(4-((1R,2S)-2-(4-fluorophenyl)-6-hydroxy-1,2,3,4-tetrahydronaphthalen-1-yl)phenyl)piperidin-4-yl)methyl)piperidin-4-yl)-6,7-dihydropyrrolo[3,4-f]isoindole-1,3(2H,5H)-dione]
12 | > 100 | O=C1CCC(N2C(=O)c3cc4c(cc3C2=O)CN(CC(=O)NC2CCN(c3ccc([C@@H]5c6ccc(O)cc6CC[C@@H]5c5ccccc5)cc3)CC2)C4)C(=O)N1 (stereo partly drawn) [E331, 2-(6-(2,6-dioxopiperidin-3-yl)-5,7-dioxo-3,5,6,7-tetrahydropyrrolo[3,4-f]isoindol-2(1H)-yl)-N-(1-(4-((1R,2S)-6-hydroxy-2-phenyl-1,2,3,4-tetrahydronaphthalen-1-yl)phenyl)piperidin-4-yl)acetamide]

Same assay, conditions: compounds 16 hours, Table A does not say whether T47D or MCF7, read-out: Potency (DC50)

Row | DC50 [nM] | Compound
13 | > 100 | C[C@@H]1Cc2c([nH]c3ccccc23)[C@@H](c2c(F)cc(C3=CCC(C(=O)N4CCC(N5Cc6cc7c(cc6C5)C(=O)N(C5CCC(=O)NC5=O)C7=O)CC4)CC3)cc2F)N1CC1(F)CC1 (stereo partly drawn) [E 485, 6-(1-(3′,5′-difluoro-4′-((1R,3R)-2-((1-fluorocyclopropyl)methyl)-3-methyl-2,3,4,9-tetrahydro-1H-pyrido[3,4-b]indol-1-yl)-2,3,4,5-tetrahydro-[1,1′-biphenyl]-4-carbonyl)piperidin-4-yl)-2-(2,6-dioxopiperidin-3-yl)-6,7-dihydropyrrolo[3,4-f]isoindole-1,3(2H,5H)-dione]
14 | 10 to 100 | C[C@@H]1Cc2c([nH]c3ccccc23)[C@@H](c2c(F)cc(C3=CCC4(CC3)CCN(C(=O)CN3Cc5cc6c(cc5C3)C(=O)N(C3CCC(=O)NC3=O)C6=O)CC4)cc2F)N1CC(F)F (stereo partly drawn) [E 476, 6-(2-(9-(4-((1R,3R)-2-(2,2-difluoroethyl)-3-methyl-2,3,4,9-tetrahydro-1H-pyrido[3,4-b]indol-1-yl)-3,5-difluorophenyl)-3-azaspiro[5.5]undec-8-en-3-yl)-2-oxoethyl)-2-(2,6-dioxopiperidin-3-yl)-6,7-dihydropyrrolo[3,4-f]isoindole-1,3(2H,5H)-dione]
15 | > 100 | C[C@@H]1Cc2c([nH]c3ccccc23)[C@@H](c2ccc(C3=CCC4(CC3)CCN(C(=O)CN3Cc5cc6c(cc5C3)C(=O)N(C3CCC(=O)NC3=O)C6=O)CC4)cc2F)N1CC(F)F (stereo partly drawn) [E 477, 6-(2-(9-(4-((1R,3R)-2-(2,2-difluoroethyl)-3-methyl-2,3,4,9-tetrahydro-1H-pyrido[3,4-b]indol-1-yl)-3-fluorophenyl)-3-azaspiro[5.5]undec-8-en-3-yl)-2-oxoethyl)-2-(2,6-dioxopiperidin-3-yl)-6,7-dihydropyrrolo[3,4-f]isoindole-1,3(2H,5H)-dione]
16 | > 100 | O=C1CCC(N2C(=O)c3cc4c(cc3C2=O)CN(CC(=O)N2CCC3(CC2)CCN(c2ccc([C@@H]5c6ccc(O)cc6OC[C@@H]5c5ccccc5)cc2)CC3)C4)C(=O)N1 (mixture of isomers) [E 467, 2-(2,6-dioxopiperidin-3-yl)-6-(2-(9-(4-(7-hydroxy-3-phenylchroman-4-yl)phenyl)-3,9-diazaspiro[5.5]undecan-3-yl)-2-oxoethyl)-6,7-dihydropyrrolo[3,4-f]isoindole-1, 3(2H,5H)-dione]
